Test system: not given
Assay: not given
Conditions: from C=CCOC1(C)CCN(c2c([C@H](OC(C)(C)C)C(=O)OCC)c(C)nc3cc(-c4cccc(-c5cc(C(=O)OC)ccc5O[C@@H](C)CC=C)c4)nn23)CC1; rcm bond; Hoveyda-Grubbs II (with CuI); DCE; 1.52 mM; 80.0 °C; 3.0 h

SMILES | ring closure, yield of all isomers [%]
CCOC(=O)[C@@H](OC(C)(C)C)c1c(C)nc2cc3nn2c1N1CCC(C)(CC1)OCC=CC[C@H](C)Oc1ccc(C(=O)OC)cc1-c1cccc-3c1 | 83

Same assay, conditions: from COC(=O)[C@@H](OC(C)(C)C)c1c(C)nc2cc(-c3cccc(-c4ccc(F)cc4OCc4cccc(CBr)c4)c3)nn2c1-c1ccc2c(c1)C(O)CCO2; ether bond; NaH; THF; 2.77 mM; 25.0 °C; 5.0 h; 2 steps

SMILES | ring closure, yield of all isomers [%]
Cc1nc2cc3nn2c(c1[C@H](OC(C)(C)C)C(=O)O)-c1ccc2c(c1)C(CCO2)OCc1cccc(c1)COc1cc(F)ccc1-c1cccc-3c1 (stereo partly drawn) [Example 23, (2S)-2-(tert-butoxy)-2-{18-fluoro-4-methyl-21, 29, 33-trioxa-5,7,8-triazaoctacyclo[28.6.2.1^6,9.1^10,14.1^23,27.0^2,7.0^15,20.0^34,38]hentetraconta-1(36),2,4,6(41),8,10(40),11,13,15(20),16,18, 23, 25, 27(39),34,37-hexadecaen-3-yl}acetic acid] | 7.2

Test system: recombinant NL-RLuc virus (NL4-3 with Renilla Luciferase gene)
Assay: Inhibition of HIV replication (NL-RLuc luciferase reporter virus in MT-2 cells)
Format: cell-based
Conditions: NL43, 120 h
Description: Inhibition of HIV Replication:
A recombinant NL-RLuc proviral clone was constructed in which a section of the nef gene from NL4-3 was replaced with the Renilla Luciferase gene. This virus is fully infectious and can undergo multiple cycles of replication in cell culture. In addition, the luciferous reporter provides a simple and easy method for quantitating the extent of virus growth and consequently, the antiviral activity of test compounds. The plasmid pNLRLuc contains the proviral NL-Rluc DNA cloned into pUC18 at the PvuII site. The NL-RLuc virus was prepared by transfection of 293T cells with the plasmid pNLRLuc. Transfections were performed using the LipofectAMINE PLUS kit from Invitrogen (Carlsbad, Calif.) according to the manufacturer and the virus generated was titered in MT-2 cells. For susceptibility analyses, the titrated virus was used to infect MT-2 cells in the presence of compound, and after 5 days of incubation, cells were processed and quantitated for virus growth by the amount of expressed luciferase. Assay media was RPMI 1640 supplemented with 10% heat inactivated fetal bovine serum (FBS), 100 units/ml penicillin G/100 units/ml streptomycin, 10 mM HEPES buffer pH 7.55 and 2 mM L-glutamine. The results from at least 2 experiments were used to calculate the EC50 values. Luciferase was quantitated using the Dual Luciferase kit from Promega (Madison, Wis.). Susceptibility of viruses to compounds was determined by incubation in the presence of serial dilutions of the compound. The 50% effective concentration (EC50) was calculated by using the exponential form of the median effect equation where (Fa)=1/[1+(ED50/drug conc.)^m] (Johnson V A, Byington R T. Infectivity Assay. In Techniques in HIV Research. ed. Aldovini A, Walker B D. 71-76. New York: Stockton Press. 1990).

SMILES | EC50 [nM]
Cc1nc2cc3nn2c(c1[C@H](OC(C)(C)C)C(=O)O)-c1ccc2c(c1)C(CCO2)OCc1cccc(c1)COc1cc(F)ccc1-c1cccc-3c1 (stereo partly drawn) [Example 23, (2S)-2-(tert-butoxy)-2-{18-fluoro-4-methyl-21, 29, 33-trioxa-5,7,8-triazaoctacyclo[28.6.2.1^6,9.1^10,14.1^23,27.0^2,7.0^15,20.0^34,38]hentetraconta-1(36),2,4,6(41),8,10(40),11,13,15(20),16,18, 23, 25, 27(39),34,37-hexadecaen-3-yl}acetic acid] | 123
Cc1ccc2cc1OCc1cccc(n1)COc1cc(F)ccc1-c1cccc(c1)-c1cc3nc(C)c([C@H](OC(C)(C)C)C(=O)O)c-2n3n1 [Example 10, (2S)-2-(tert-Butoxy)-2-{26-fluoro-7,13-dimethyl-15,23-dioxa-3,4,6,35-tetraazaheptacyclo [28.3.1.1^2,^5.1^10,^14.0^17,^21.0^4,^9.0^24,^29]heptatriaconta-1(34),2,5(37),6,8,10,12,14(36), 17(35),18,20,24(29),25,27,30,32-hexadecaen-8-yl}acetic acid] | 4200
Cc1nc2cc3nn2c(c1[C@H](OC(C)(C)C)C(=O)O)N1CCC(C)(CC1)OCCCC[C@H](C)Oc1ccc(C(=O)N(C)CCc2ccc(F)cc2)cc1-c1cccc-3c1 [Example 26, (2S)-2-(tert-Butoxy)-2-[(22S)-17-{[2-(4-fluorophenyl)ethyl](methyl)carbamoyl}-4, 22, 28-trimethyl-21, 27-dioxa-1,5,7,8-tetraazahexacyclo[26.2.2.1^6,9.1^10,14.0^2,7.0^15,20]tetratriaconta-2,4,6(34),8,10(33),11,13,15(20),16,18-decaen-3-yl]acetic acid] | 3
Cc1ccc2cc1OCCN(C(C)(C)C)CCOc1cc(F)ccc1-c1cccc(c1)-c1cc3nc(C)c([C@H](OC(C)(C)C)C(=O)O)c-2n3n1 [Example 14, (2S)-2-(tert-Butoxy)-2-{18-tert-butyl-24-fluoro-7,13-dimethyl-15,21-dioxa-3,4,6,18-tetraazahexacyclo [26.3.1.1^2,^5.1^10,^14.0^4,^9.0^22,^27]tetratriaconta-1(32),2,5(34),6,8,10,12,14(33), 22(27),23,25,28,30-tridecaen-8-yl}acetic acid] | 3250
Cc1nc2cc3nn2c(c1[C@H](OC(C)(C)C)C(=O)O)-c1ccc2c(c1)C(CCO2)OCCCCCCOc1cc(F)ccc1-c1cccc-3c1 (stereo partly drawn) [Example 22, (2S)-2-(tert-butoxy)-2-{18-fluoro-4-methyl-21,28,32-trioxa-5,7,8-triazaheptacyclo[27.6.2.1^6,9.1^10,14.0^2,7.0^15,20.0^33,37]nonatriaconta-1(35),2,4,6(39),8,10(38),11,13,15(20),16,18,33,36-tridecaen-3-yl}acetic acid] | 1440
Cc1ccc2cc1OC/C=C\COc1cc(F)ccc1-c1cccc(c1)-c1cc3nc(C)c([C@H](OC(C)(C)C)C(=O)O)c-2n3n1 [Example 11, (2S)-2-(tert-Butoxy)-2-[(17Z)-23-fluoro-7,13-dimethyl-15,20-dioxa-3,4,6-triazahexacyclo [25.3.1.1^2,^5.1^10,^14.0^4,^9.0^21,^26]tritriaconta-1(31),2,5(33),6,8,10,12,14(32), 17,21(26),22,24,27,29-tetradecaen-8-yl]acetic acid] | 3310
C=C1COc2cc(ccc2C)-c2c([C@H](OC(C)(C)C)C(=O)O)c(C)nc3cc(nn23)-c2cccc(c2)-c2ccc(F)cc2OC1 [Example 8, (2S)-2-(tert-Butoxy)-2-{22-fluoro-7,13-dimethyl-17-methylidene-15,19-dioxa-3,4,6-triazahexacyclo [24.3.1.1^2,^5.1^10,^14.0^4,^9.0^20,^25]dotriaconta-1(30),2,5(32),6,8,10,12,14(31), 20(25),21,23,26,28-tridecaen-8-yl}acetic acid] | 784
Cc1nc2cc3nn2c(c1[C@H](OC(C)(C)C)C(=O)O)-c1ccc(cc1)OCCCCCCOc1cc(F)ccc1-c1cccc-3c1 [Example 1, (2S)-2-(tert-butoxy)-2-{18-fluoro-4-methyl-21,28-dioxa-5,7,8-triazahexacyclo [27.2.2.1^6,^9.1^10,^14.0^2,^7.0^15,^20]pentatriaconta-1(31),2,4,6(35),8,10(34),11,13, 15(20),16,18,29,32-tridecaen-3-yl}acetic acid] | 397
Cc1nc2cc3nn2c(c1[C@H](OC(C)(C)C)C(=O)O)-c1ccc2c(c1)C(CCO2)OCCCCCOc1cc(F)ccc1-c1cccc-3c1 (stereo partly drawn) [Example 21, (2S)-2-(tert-Butoxy)-2-{18-fluoro-4-methyl-21,27,31-trioxa-5,7,8-triazaheptacyclo[26.6.2.1^6,9.1^10,14.0^2,7.0^15,20.0^32,36]octatriaconta-1(34),2,4,6(38),8,10(37),11,13,15(20),16,18,32,35-tridecaen-3-yl}acetic acid] | 695

Reference: patent US9834566B2, “Pyrazolopyrimidine macrocycles as inhibitors of human immunodeficiency virus replication” (priority 2014, dated 2017)
